Data: patent US20220363662A1, “COMPOUNDS AS LXR AGONISTS” (Integral Biosciences Privated Limited, priority 2021, published 2022)

Legend:
HepG2 = assay: Cell viability assay (resazurin) in HepG2; format: cell-based; conditions: Homo sapiens, 96 hr exposure
Method: (§1) HepG2 (ATCC® HB-8065™), hepatocellular carcinoma, A549 (ATCC® CCL-185™), lung epithelial carcinoma, MCF7 (ATCC® HTB-22™), mammary gland epithelial carcinoma, MDA-MB-231 (ATCC® HTB-26™), TNBC, MiaPaCa-2 (ATCC® CRL-1420™) & Panc-1 (ATCC® CRL-1469™), pancreatic epithelial carcinoma, HCT116 (ATCC® CCL-247™), colon epithelial carcinoma and U87MG (ATCC® HTB-14™), brain epithelial carcinoma cell lines respectively were seeded in the respective medium (DMEM, Cat #10569044 with 10% FBS, Cat #16000044; Gibco for HepG2, A549, MCF7, MDA-MB-231, MiaPaCa-2, Panc-1, HCT116 and MEM, Cat #11095080 with 10% FBS for U87MG). Cells were allowed to grow at 37° C. for 24 hr in 5% CO2 (culture conditions) in a Nuaire incubator (humidified). Serially diluted compounds (100 μl) were added to the culture plate 24 hr later and the cultures were further incubated in culture conditions for 96 hr. Experiment was terminated at the completion of 96 hr exposure to the drug by replacing the medium with 100 μl of 1 mM of resazurin (R7017; Sigma) prepared in culture medium and the plates were further incubated in culture conditions for 4 hr. Fluorescence was then measured using a multimodal plate reader (Biotek Synergy Neo) at an excitation wavelength of 535 nm and emission wavelength of 590 nm to obtain relative fluorescence units. Data analysis was done by subtracting the background fluorescence (only medium blank) value from each reading and then normalizing with the vehicle control (DMSO treated cells) to obtain percent survival/proliferation. Percent survival at different doses was used to calculate IC50 by fitting the curve to the “four-parameter variable slope logistic model” using Prism Graph Pad.

LXR beta = target: T1, LXR beta (Homo sapiens, UniProt P55055); assay: LXR beta agonist assay (Lanthascreen TR-FRET); format: biochemical; conditions: LXR beta-LBD 5 nM, read-out: LXR-β EC50
T1 construct: 5 μL of 4×LXR beta-LBD was added to each well (final concentration 5 nM); purchased Thermofisher PV4658
T1 sequence (P55055 222-460 limits assumed): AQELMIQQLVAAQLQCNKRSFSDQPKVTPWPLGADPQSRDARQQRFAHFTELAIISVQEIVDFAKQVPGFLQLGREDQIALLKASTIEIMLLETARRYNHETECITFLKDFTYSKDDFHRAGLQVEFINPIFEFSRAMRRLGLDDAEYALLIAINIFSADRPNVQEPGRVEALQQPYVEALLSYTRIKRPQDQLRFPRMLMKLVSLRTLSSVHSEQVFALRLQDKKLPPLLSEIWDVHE
Method: EC50 values of compounds against LXR beta were determined at Integral BioSciences (India) using Lanthascreen TR-FRET (Thermofisher, Cat #PV4658). Assay was performed in a 20 μL final volume in a Black 384-well plate (Corning, Cat #4511). Dose response curve for the compounds were prepared in duplicates with starting concentration at 30 μM and a three-fold titration was performed. The reaction buffer consisted of TR-FRET Coregulator Buffer G. To the compound dilution, 5 μL of 4×LXR beta-LBD was added to each well (final concentration 5 nM). An equal volume (5 μL) containing 4×Fl-D22/Tb-anti GST antibody (final concentration 100 nM/10 nM) was added to initiate the enzyme reaction and the reaction was incubated for 60 min at 22° C. after which the plates were read using BioTek Plate reader for TR-FRET every hour up to 4 hours.
Analysis was done using the standard curve by non-linear regression, variable slope inhibitor curve fits (Graph-Pad Prism) and EC50's of compounds were determined wherever possible.

A549 = assay: Cell viability assay (resazurin) in A549; format: cell-based; conditions: Homo sapiens, 96 hr exposure
Method: as §1

HCT116 = assay: Cell viability assay (resazurin) in HCT116; format: cell-based; conditions: Homo sapiens, HCT-116; 96 hr exposure
Method: as §1

THP1 = assay: Cell viability assay in THP1; format: cell-based; conditions: Homo sapiens, THP-1
MDA-MB-231 = assay: Cell viability assay (resazurin) in MDA-MB-231; format: cell-based; conditions: Homo sapiens, 96 hr exposure, read-out: MDA_MB-231 Cell IC50
Method: as §1

SMILES	IC50 (HepG2)	EC50 (LXR beta)	also measured
CC(C)[C@@](O)(C(=O)N1CCC2(CC1)CN(C1CCN(c3ccc(C(=O)N(C)C)c(Cl)c3)CC1)C2)C(F)(F)F (single isomer, unassigned) [Compound 1.73]	> 30 µM	1.41 µM	–
CN(C)C(=O)c1ccc(-c2cncc(C3=CCN(S(=O)(=O)c4ccccc4Cl)CC3)c2)cc1Cl [Compound 1.39, 2-chloro-4-(5-(1-(2-chlorophenylsulfonyl)-1,2,3,6-tetrahydropyridin-4-yl)pyridin-3-yl)-N,N-dimethylbenzamide]	–	–	IC50 (A549): > 30 µM; IC50 (HCT116): > 30 µM; IC50 (THP1): > 30 µM; IC50 (MDA-MB-231): > 30 µM
CC(C)C(O)(C(=O)N1CCC(N2CC[C@H](Nc3ccc(C(=O)N(C)C)c(Cl)c3)C2)CC1)C(F)(F)F (stereo partly drawn) [Compound 1.40, 2-chloro-4-((3S)-1-(1-(2-hydroxy-3-methyl-2-(trifluoromethyl)butanoyl)piperidin-4-yl)pyrrolidin-3-ylamino)-N,N-dimethylbenzamide]	–	23.6 µM	IC50 (A549): > 30 µM; IC50 (HCT116): > 30 µM; IC50 (THP1): > 30 µM; IC50 (MDA-MB-231): > 30 µM
CN(C)C(=O)c1ccc(NC2CN(C3CCN(C(=O)C4(c5ccccc5)CCC4)CC3)C2)cc1Cl [Compound 1.48, 2-chloro-N,N-dimethyl-4-(1-(1-(1-phenylcyclobutanecarbonyl)piperidin-4-yl)azetidin-3-ylamino)benzamide]	–	–	IC50 (A549): 19.8 µM; IC50 (HCT116): 12.2 µM; IC50 (THP1): > 30 µM; IC50 (MDA-MB-231): > 30 µM
CN(C)C(=O)c1ccc(N[C@@H]2CCCN(C3CCN(C(=O)[C@](O)(c4ccccc4)C(F)(F)F)CC3)C2)cc1Cl [Compound 1.71, 2-chloro-N,N-dimethyl-4-((R)-1′-((R)-3,3,3-trifluoro-2-hydroxy-2-phenylpropanoyl)-1,4′-bipiperidin-3-ylamino)benzamide]	> 29.4 µM	1.18 µM	–
CN(C)C(=O)c1ccc(O[C@@H]2CCN(C3CCN(C(=O)[C@](O)(c4ccccc4)C(F)(F)F)CC3)C2)cc1Cl [Compound 1.72, 2-chloro-N,N-dimethyl-4-((R)-1-(1-((R)-3,3,3-trifluoro-2-hydroxy-2-phenylpropanoyl)piperidin-4-yl)pyrrolidin-3-yloxy)benzamide]	> 30 µM	5.37 µM	–
CN(C)C(=O)c1ccc(N2CC3(CCN(C4CCN(C(=O)[C@](O)(c5ccccc5)C(F)(F)F)CC4)CC3)C2)cc1Cl [Compound 1.75, 2-chloro-N,N-dimethyl-4-(7-(1-((R)-3,3,3-trifluoro-2-hydroxy-2-phenylpropanoyl)piperidin-4-yl)-2,7-diazaspiro[3.5]nonan-2-yl)benzamide]	> 30 µM	> 30 µM	–
CN(C)C(=O)c1ccc(O[C@H]2CCN(C3CCN(C(=O)[C@](O)(c4ccccc4)C(F)(F)F)CC3)C2)cc1Cl [Compound 1.76, 2-chloro-N,N-dimethyl-4-((S)-1-(1-((R)-3,3,3-trifluoro-2-hydroxy-2-phenylpropanoyl)piperidin-4-yl)pyrrolidin-3-yloxy)benzamide]	> 30 µM	> 29.8 µM	–
CC(C)C(O)(C(=O)N1CCC(N2CCC3(CC2)CN(c2ccc(C(=O)N(C)C)c(Cl)c2)C3)CC1)C(F)(F)F (stereo not drawn) [Compound 1.78, 2-chloro-4-(7-(1-(2-hydroxy-3-methyl-2-(trifluoromethyl)butanoyl)piperidin-4-yl)-2,7-diazaspiro[3.5]nonan-2-yl)-N,N-dimethylbenzamide]	> 30 µM	> 30 µM	–
CN(C)C(=O)c1ccc(N2CCC(N3CC4(CCN(C(=O)[C@](O)(c5ccccc5)C(F)(F)F)CC4)C3)CC2)cc1Cl [Compound 1.79, 2-chloro-N,N-dimethyl-4-(4-(7-((R)-3,3,3-trifluoro-2-hydroxy-2-phenylpropanoyl)-2,7-diazaspiro[3.5]nonan-2-yl)piperidin-1-yl)benzamide]	26.6 µM	4.3 µM	–
CN(CCCC(F)(F)F)C(=O)c1ccc(NC2CN(C3CCN(C(=O)[C@](O)(c4ccccc4)C(F)(F)F)CC3)C2)cc1Cl [Compound 1.125, (R)-2-chloro-N-methyl-4-(1-(1-(3,3,3-trifluoro-2-hydroxy-2-phenylpropanoyl)piperidin-4-yl)azetidin-3-ylamino)-N-(4,4,4-trifluorobutyl)benzamide]	–	3.98 µM	–
CN(C)C(=O)c1c(F)cc(N2CCN(C3CC4(C3)CN(C(=O)C(O)(c3ccccc3)C(F)(F)F)C4)CC2)cc1F (stereo not drawn) [Compound 1.126, 2,6-difluoro-N,N-dimethyl-4-(4-(2-(3,3,3-trifluoro-2-hydroxy-2-phenylpropanoyl)-2-azaspiro[3.3]heptan-6-yl)piperazin-1-yl)benzamide]	–	1.58 µM	–
CN(C)C(=O)c1ccc(C2=CCN(C3CC4(C3)CN(C(=O)C(O)(c3ccccc3)C(F)(F)F)C4)CC2)cc1Cl (stereo not drawn) [Compound 1.127, 2-chloro-N,N-dimethyl-4-(1-(2-(3,3,3-trifluoro-2-hydroxy-2-phenylpropanoyl)-2-azaspiro[3.3]heptan-6-yl)-1,2,3,6-tetrahydropyridin-4-yl)benzamide]	–	3.95 µM	–
CN(C)C(=O)c1cc([N+](=O)[O-])c(NC2CN(C3CCN(C(=O)[C@](O)(c4ccccc4)C(F)(F)F)CC3)C2)cc1Cl [Compound 1.129, (R)-2-chloro-N,N-dimethyl-5-nitro-4-(1-(1-(3,3,3-trifluoro-2-hydroxy-2-phenylpropanoyl)piperidin-4-yl)azetidin-3-ylamino)benzamide]	–	3.47 µM	–
O=C(NCC(F)F)c1ccc(NC2CN(C3CCN(C(=O)C(O)(c4cccc(Cl)c4)C(F)(F)F)CC3)C2)cc1Cl (stereo not drawn) [Compound 1.130, 2-chloro-4-((1-(1-(2-(3-chlorophenyl)-3,3,3-trifluoro-2-hydroxypropanoyl)piperidin-4-yl)azetidin-3-yl)amino)-N-(2,2-difluoroethyl)benzamide]	–	1.57 µM	–
O=C(c1ccc(NC2CN(C3CCN(C(=O)C(O)(c4cccc(Cl)c4)C(F)(F)F)CC3)C2)cc1Cl)N1CC(F)(F)C1 (stereo not drawn) [Compound 1.131, 1-(4-(3-((3-chloro-4-(3,3-difluoroazetidine-1-carbonyl)phenyl)amino)azetidin-1-yl)piperidin-1-yl)-2-(3-chlorophenyl)-3,3,3-trifluoro-2-hydroxypropan-1-one]	–	1.79 µM	–
O=C(c1ccc(NC2CN(C3CCN(C(=O)C(O)(c4cccc(Cl)c4)C(F)(F)F)CC3)C2)cc1Cl)N1CCC(F)(F)C1 (stereo not drawn) [Compound 1.132, 1-(4-(3-((3-chloro-4-(3,3-difluoropyrrolidine-1-carbonyl)phenyl)amino)azetidin-1-yl)piperidin-1-yl)-2-(3-chlorophenyl)-3,3,3-trifluoro-2-hydroxypropan-1-one]	–	0.61 µM	–
O=C(c1ccc(NC2CN(C3CCN(C(=O)C(O)(c4cccc(Cl)c4)C(F)(F)F)CC3)C2)cc1Cl)N1CCC(F)(F)CC1 (stereo not drawn) [Compound 1.133, 1-(4-(3-((3-chloro-4-(4,4-difluoropiperidine-1-carbonyl)phenyl)amino)azetidin-1-yl)piperidin-1-yl)-2-(3-chlorophenyl)-3,3,3-trifluoro-2-hydroxypropan-1-one]	–	0.995 µM	–
CC(=O)N1CCN(C(=O)c2ccc(NC3CN(C4CCN(C(=O)C(O)(c5cccc(Cl)c5)C(F)(F)F)CC4)C3)cc2Cl)CC1 (stereo not drawn) [Compound 1.134, 1-(4-(3-((4-(4-acetylpiperazine-1-carbonyl)-3-chlorophenyl)amino)azetidin-1-yl)piperidin-1-yl)-2-(3-chlorophenyl)-3,3,3-trifluoro-2-hydroxypropan-1-one]	–	0.86 µM	–
